Experimental findings from patent US20230303540A1 (Merck Sharp & Dohme LLC, priority 2020, published 2023) are described below.

Molecules are shown by their SMILES.

For this assay, the target named is GST-tagged truncated human mutant G2019S LRRK2 (Homo sapiens, UniProt Q5S007, G2019S). The experiment in a line: LRRK2 G2019S Km ATP LanthaScreen assay. To be noted: 134 μM ATP (Km ATP), LRRKtide substrate, mean IC50 values; read-out: LRRK2 pIC50 (converted). The class given is biochemical. The method, boiled down:
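Compound preincubated 15 min at room temperature with enzyme in pH 8.5 Tris buffer (10 mM MgCl2). Then a 90 min reaction at ambient temperature with 134 μM (Km) ATP and fluorescein-LRRKtide. EDTA stop, Tb anti-phospho antibody TR-FRET; […]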
Take `Cc1c(Nc2ncc3cc(Cl)c(N4CCN(C5(C)COCC5O)CC4)cc3n2)cnn1C1CC1(F)F` (single isomer, unassigned) [Ex-6.42, (3S,4S) or (3R,4R) 4-[4-(6-chloro-2-{[1-(2,2-(R) or (S)difluorocyclopropyl)-5-methyl-1H-pyrazol-4-yl]amino}quinazolin-7-yl)piperazin-1-yl]-4-methyloxolan-3-ol]: the IC50 is 21.4 nM.
For `Cc1c(Nc2ncc3cc(Cl)c(N4CCN(C5COCC5O)CC4)cc3n2)cnn1C1CC1(F)F` (single isomer, unassigned) [Ex-6.43, (3S,4S) or (3R,4R) 4-[4-(6-chloro-2-{[1-(2,2-(R) or (S)difluorocyclopropyl)-5-methyl-1H-pyrazol-4-yl]amino}quinazolin-7-yl)piperazin-1-yl]oxolan-3-ol], the IC50 was 7.92 nM.
Take `Cc1c(Nc2ncc3cc(Cl)c(N4CCN(C5COCC5O)CC4)cc3n2)cnn1C1CC1(F)F` (single isomer, unassigned) [Ex-6.44, (3S,4S) or (3R,4R) 4-[4-(6-chloro-2-{[1-(2,2-(R) or (S)difluorocyclopropyl)-5-methyl-1H-pyrazol-4-yl]amino}quinazolin-7-yl)piperazin-1-yl]oxolan-3-ol]: the IC50 was 6.89 nM.
On to `Cc1c(Nc2ncc3cc(Cl)c(N4CCN(C5COCC5O)CC4)cc3n2)cnn1C1CC1(F)F` (single isomer, unassigned) [Ex-6.45, (3S,4S) or (3R,4R) 4-[4-(6-chloro-2-{[1-(2,2-(R) or (S)difluorocyclopropyl)-5-methyl-1H-pyrazol-4-yl]amino}quinazolin-7-yl)piperazin-1-yl]oxolan-3-ol], for which the IC50 is 0.843 nM.
As to `OC1COCC1N1CCN(c2cc3nc(Nc4cnn(C(F)F)c4)ncc3cc2Cl)CC1` (single isomer, unassigned) [Ex-6.46, (3S,4S) or (3R,4R) 4-(4-(6-chloro-2-((1-(difluoromethyl)-1H-pyrazol-4-yl)amino)quinazolin-7-yl)piperazin-1-yl)tetrahydrofuran-3-ol], the IC50 was 18.4 nM.
With `OC1COCC1N1CCN(c2cc3nc(Nc4cnn(C(F)F)c4)ncc3cc2Cl)CC1` (single isomer, unassigned) [Ex-6.47, (3S,4S) or (3R,4R) 4-(4-(6-chloro-2-((1-(difluoromethyl)-1H-pyrazol-4-yl)amino)quinazolin-7-yl)piperazin-1-yl)tetrahydrofuran-3-ol], the IC50 is 0.85 nM.
Take `CC1(N2CCN(c3cc4nc(Nc5ccnn5C(C)(C)C)ncc4cc3Cl)CC2)COCC1O` (single isomer, unassigned) [Ex-6.48, (3S,4S) or (3R,4R) 4-(4-(2-((1-(tert-butyl)-1H-pyrazol-5-yl)amino)-6-chloroquinazolin-7-yl)piperazin-1-yl)-4-methyltetrahydrofuran-3-ol]: the IC50 was 11.4 nM.
As for `Cn1ncc(Nc2ncc3cc(Cl)c(N4CCN(C5(C)COCC5O)CC4)cc3n2)c1C(F)F` (single isomer, unassigned) [Ex-6.49, (3S,4S) or (3R,4R) 4-(4-(6-chloro-2-((5-(difluoromethyl)-1-methyl-1H-pyrazol-4-yl)amino)quinazolin-7-yl)piperazin-1-yl)-4-methyltetrahydrofuran-3-ol], the figure is 2.07 nM; as for `CC(C)n1ncc(Nc2ncc3cc(Cl)c(N4CCN(C5(C)COCC5O)CC4)cc3n2)c1C(F)F` (single isomer, unassigned) [Ex-6.50, (3S,4S) or (3R,4R) 4-(4-(6-chloro-2-((5-(difluoromethyl)-1-isopropyl-1H-pyrazol-4-yl)amino)quinazolin-7-yl)piperazin-1-yl)-4-methyltetrahydrofuran-3-ol], 0.08 nM; as for `Cc1c(Nc2cc3cc(N4CCN(C5(C)COCC5O)CC4)c(Cl)cc3cn2)cnn1C1CC1` (single isomer, unassigned) [Ex-6.51, (3S,4S) or (3R,4R) 4-(4-(7-chloro-3-((1-cyclopropyl-5-methyl-1H-pyrazol-4-yl)amino)isoquinolin-6-yl)piperazin-1-yl)-4-methyltetrahydrofuran-3-ol], 1.35 nM.
For `CC1(N2CCN(c3cc4cc(Nc5cnn(C6CC6(F)F)c5Cl)ncc4cc3Cl)CC2)COCC1O` (single isomer, unassigned) [Ex-6.52, (3S,4S) or (3R,4R) 4-(4-(7-chloro-3-((5-chloro-1-(2,2-difluorocyclopropyl)-1H-pyrazol-4-yl)amino)isoquinolin-6-yl)piperazin-1-yl)-4-methyltetrahydrofuran-3-ol], the IC50 was 3.12 nM.
With `Cc1c(Nc2cc3cc(N4CCN(C5(C)COCC5O)CC4)c(Cl)cc3cn2)cnn1C1CC1(F)F` (single isomer, unassigned) [Ex-6.53, (3S,4S) or (3R,4R) 4-(4-(7-chloro-3-((1-(2,2-difluorocyclopropyl)-5-methyl-1H-pyrazol-4-yl)amino)isoquinolin-6-yl)piperazin-1-yl)-4-methyltetrahydrofuran-3-ol], the IC50 was 0.522 nM.
On to `CC1(N2CCN(c3cc4cc(Nc5cnn(C6CC6)c5Cl)ncc4cc3Cl)CC2)COCC1O` (single isomer, unassigned) [Ex-6.54, (3S,4S) or (3R,4R) 4-(4-(7-chloro-3-((5-chloro-1-cyclopropyl-1H-pyrazol-4-yl)amino)isoquinolin-6-yl)piperazin-1-yl)-4-methyltetrahydrofuran-3-ol], for which the IC50 was 1.21 nM.
In the case of `Cc1c(Nc2ncc3ccc(N4C(=O)OC[C@@H]4C)cc3n2)cnn1C1C[C@@H](C)O[C@@H](C)C1` (single isomer, unassigned) [Ex-7.4] it was 6.75 nM; in that of `Cc1c(Nc2ncc3ccc(N4C(=O)OC[C@@H]4C)cc3n2)cnn1C1C[C@@H](C)O[C@@H](C)C1` (single isomer, unassigned) [Ex-7.6], 1.57 nM.
As for `Cc1c(Nc2ncc3ccc(N4C(=O)OCC4C4CC4)cc3n2)cnn1C1CCOCC1` (single isomer, unassigned) [Ex-7.13, (R) or (S) 4-cyclopropyl-3-(2-{[5-methyl-1-(oxan-4-yl)-1H-pyrazol-4-yl]amino}quinazolin-7-yl)-1,3-oxazolidin-2-one], the figure is 11.4 nM.
With `Cc1c(Nc2ncc3ccc(N4C(=O)OCC4C4CC4)cc3n2)cnn1C1CCOCC1` (single isomer, unassigned) [Ex-7.14, (R) or (S) 4-cyclopropyl-3-(2-{[5-methyl-1-(oxan-4-yl)-1H-pyrazol-4-yl]amino}quinazolin-7-yl)-1,3-oxazolidin-2-one], the IC50 was 0.749 nM.
`CCn1ncc(Nc2ncc3ccc(N4C(=O)OCC4C4CC4)cc3n2)c1C` (single isomer, unassigned) [Ex-7.15, (R) or (S) 4-cyclopropyl-3-{2-[(1-ethyl-5-methyl-1H-pyrazol-4-yl)amino]quinazolin-7-yl}-1,3-oxazolidin-2-one]: the IC50 was 9.26 nM.
As for `CCn1ncc(Nc2ncc3ccc(N4C(=O)OCC4C4CC4)cc3n2)c1C` (single isomer, unassigned) [Ex-7.16, (R) or (S) 4-cyclopropyl-3-{2-[(1-ethyl-5-methyl-1H-pyrazol-4-yl)amino]quinazolin-7-yl}-1,3-oxazolidin-2-one], the IC50 is 0.625 nM.
As for `CCn1ncc(Nc2ncc3ccc(N4C(=O)CCC4C)cc3n2)c1C` (single isomer, unassigned) [Ex-7.17, (R) or (S) 1-{2-[(1-ethyl-5-methyl-1H-pyrazol-4-yl)amino]quinazolin-7-yl}-5-methylpyrrolidin-2-one], the IC50 was 54.9 nM.
Take `CCn1ncc(Nc2ncc3ccc(N4C(=O)CCC4C)cc3n2)c1C` (single isomer, unassigned) [Ex-7.18, (R) or (S) 1-{2-[(1-ethyl-5-methyl-1H-pyrazol-4-yl)amino]quinazolin-7-yl}-5-methylpyrrolidin-2-one]: the IC50 is 8.73 nM.
As to `CCc1cc2cnc(Nc3cnn(C4CC4(F)F)c3Cl)nc2cc1N1CCN(C2(C)COCC2O)CC1` (single isomer, unassigned) [Ex-8.3, (3S,4S) or (3R,4R) 4-(4-(2-((5-chloro-1-(2,2-(R) or (S)difluorocyclopropyl)-1H-pyrazol-4-yl)amino)-6-ethylquinazolin-7-yl)piperazin-1-yl)-4-methyltetrahydrofuran-3-ol], the IC50 was 0.745 nM.
`Cc1nn(C2CC3(C2)CN(C2COC2)C3)cc1Nc1ncc2ccc(N3C(=O)C4CCC3C4)cc2n1` (single isomer, unassigned) [Ex-8.5, (1R,4S) or (1S,4R)-2-(2-((3-methyl-1-(2-(oxetan-3-yl)-2-azaspiro[3.3]heptan-6-yl)-1H-pyrazol-4-yl)amino)quinazolin-7-yl)-2-azabicyclo[2.2.1]heptan-3-one]: the IC50 is 0.625 nM.
As for `Cc1nn(C2CC3(C2)CN(C2COC2)C3)cc1Nc1ncc2ccc(N3C(=O)C4CCC3C4)cc2n1` (single isomer, unassigned) [Ex-8.6, (1R,4S) or (1S,4R)-2-[2-({3-methyl-1-[2-(oxetan-3-yl)-2-azaspiro[3.3]heptan-6-yl]-1H-pyrazol-4-yl}amino)quinazolin-7-yl]-2-azabicyclo[2.2.1]heptan-3-one], the figure is 4.86 nM; as for `Cc1c(Nc2ncc3cc(Cl)c(N4CCC(C)(O)CC4C)cc3n2)cnn1C1CC1` (single isomer, unassigned) [Ex-9.1, (2R,4S or 2S,4R, or 2S,4S, or 2R,4R)-1-(6-Chloro-2-((1-cyclopropyl-5-methyl-1H-pyrazol-4-yl)amino)quinazolin-7-yl)-2,4-dimethylpiperidin-4-ol], 4.68 nM; as for `Cc1c(Nc2ncc3cc(Cl)c(N4CCC(C)(O)CC4C)cc3n2)cnn1C1CC1` (single isomer, unassigned) [Ex-9.2, (2R,4S or 2S,4R, or 2S,4S, or 2R,4R)-1-(6-Chloro-2-((1-cyclopropyl-5-methyl-1H-pyrazol-4-yl)amino)quinazolin-7-yl)-2,4-dimethylpiperidin-4-ol], 1.06 nM.
For `Cc1c(Nc2ncc3cc(Cl)c(N4CCN(C5COC(C)(C)C5)CC4)cc3n2)cnn1C1CC1` (single isomer, unassigned) [Ex-12.1], the IC50 is 2.93 nM.
